Measured values from patent EP4793271A1, “NEUROPROTECTIVE AGENT” (National Center of Neurology and Psychiatry, priority 2023, dated 2025).

Tests used:
[1] = test system: primary cultured cells of mouse fetus-derived dorsal root ganglia (DRGs); experiment: Suppression of axonal degeneration after axotomy in DRG explant culture; assay type: cell-based; conditions: Mus musculus; minimum concentration at which axonal degeneration was suppressed (DI 0.3 or less); 24 hours after axotomy; read-out: Evaluation on protection against degeneration
Summary of the method: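 Embryonic ICR mouse DRG explants were cultured 7–8 days in nicotinamide-free neuronal medium with NGF, then axotomized by removing the cell bodies. Compound (100 pM–10 µM final, 0.1% DMSO) was added within 30 min, and neurites were imaged 24 h later. The result is the lowest concentration giving degeneration index ≤0.3.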

[2] = molecular target: T1, nicotinamide phosphoribosyl transferase (NAMPT) (Homo sapiens, UniProt P43490); experiment: NAMPT activity measurement (NMN fluorescence detection); assay type: biochemical; conditions: NAMPT recombinant protein; 10 µM Nam
T1 construct: purchased Medical & Biological Laboratories Co., Ltd. (MBL)
Summary of the method: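 Recombinant NAMPT reacted with 10 µM Nam, 0.5 µM PRPP, 2 µM ATP in Tris pH 7.4 buffer with MgCl2, DTT, BSA; product NMN quantified by fluorescence (ex 421/em 480 nm) after derivatization with 2-acetylbenzofuran. Compounds at 3 nM–10 µM; control-normalized signal used for IC50.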

[3] = Pharmacokinetic evaluation after single iv and po administration to mice; assay type: in vivo, C57BL/6J male mice; conditions: for AUC(0-inf) / AUC(0-t) / C0 / half-life / clearance / Vd / Cmax / Tmax: male, C57BL/6J, mouse, plasma; for clearance: read-out: CLtot (converted); for Vd: read-out: Vss; for volume of distribution: result in words
Protocol: The concentrations of compound 35 and its metabolites in plasma were measured, and oral absorbability (bioavailability) was evaluated. Systemic clearance was calculated for the iv administration, and pharmacokinetic features were determined.
The concentrations of compound 76 and its metabolites in plasma were measured, and oral absorbability (bioavailability) was evaluated. Systemic clearance was calculated for the iv administration, and pharmacokinetic features were determined.
The concentration of compound 105 in plasma was measured, and oral absorbability (bioavailability: BA) was evaluated. A half-life, the volume of distribution in a stationary state, and systemic clearance, and the like were calculated for the iv administration, and pharmacokinetic features were determined.

[4] = 1 mg/kg, iv 1 mg/5 ml/kg single dose
[5] = 10 mg/kg, po 10 mg/10 ml/kg single dose

T1 sequence (P43490 whole entry, species assumed): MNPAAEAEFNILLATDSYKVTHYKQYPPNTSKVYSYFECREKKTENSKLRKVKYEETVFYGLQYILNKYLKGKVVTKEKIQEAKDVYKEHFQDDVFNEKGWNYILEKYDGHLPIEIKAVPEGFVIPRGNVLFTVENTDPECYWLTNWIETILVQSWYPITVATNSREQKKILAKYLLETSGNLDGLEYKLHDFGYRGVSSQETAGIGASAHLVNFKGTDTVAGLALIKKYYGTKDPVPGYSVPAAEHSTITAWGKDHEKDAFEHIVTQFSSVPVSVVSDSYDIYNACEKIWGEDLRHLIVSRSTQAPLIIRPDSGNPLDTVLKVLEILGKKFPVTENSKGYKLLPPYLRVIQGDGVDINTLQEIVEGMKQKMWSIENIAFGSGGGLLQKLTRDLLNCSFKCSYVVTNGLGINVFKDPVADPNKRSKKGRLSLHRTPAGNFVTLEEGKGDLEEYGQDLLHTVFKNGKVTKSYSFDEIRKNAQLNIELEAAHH

| Evaluation on NAMPT inhibitory [2] | AUC(0-inf) [3, 4] [ng·h/mL] | AUC(0-t) [3, 4] [ng·h/mL] | C0 [3, 4] [ng/mL] | half-life [3, 4] [h] | clearance [3, 4] [mL/min/kg] | Vd [3, 4] [L/kg] | AUC(0-inf) [3, 5] [ng·h/mL] | AUC(0-t) [3, 5] [ng·h/mL] | Cmax [3, 5] [ng/mL] | Tmax [3, 5] [h] | half-life [3, 5] [h] | BA ([3]; po 10 mg/10 ml/kg vs iv 1 mg/5 ml/kg, oral absorbability (bioavailability)) [%] | SMILES | minimal effective concentration [1] [µM] | volume of distribution [3] |
| --- | --- | --- | --- | --- | --- | --- | --- | --- | --- | --- | --- | --- | --- | --- | --- |
| ○ | 234 | 228 | 1600 | 1.9 | 71.4 | 1.57 | 297 | 293 | 501 | 0.25 | 1.89 |  | O=C(NCCCOCCOCCCNC(=O)c1cccnc1)c1cccnc1 [compound 35] | ≤ 0.01 | large as compared with the amount of intercellular fluid |
| ○ | 1160 | 1160 | 1940 | 1.14 | 14.6 | 0.89 | 14200 | 14100 | 9850 | 0.25 | 3.21 | 124 | CC(C)(C)C(=O)Nc1ccc(CNC(=O)c2cccnc2)cn1 [compound 76] | ≤ 0.01 | large |
| ○ | 408 | 391 | 1050 | 2.81 | 40.9 | 3.14 | 2420 | 2410 | 2520 | 0.25 | 4.13 |  | O=C(NCc1ccc(NC(=O)c2ccccc2)nc1)c1cccnc1 [compound 105] | ≤ 0.01 | large as compared with the amount of intercellular fluid |
